Laboratory results: patent publication US20210163453A1, “DERIVATIVES OF PAPAVERINE THAT ARE EFFECTIVE HYPOXIC TUMOR RADIOSENSITIZERS” (Ohio State Innovation Foundation, priority 2018, published 2021)
“Also recorded” adds a separate entry of the source.

Assays:
[1] = system: mitochondrial complex 1; assay: Seahorse OCR inhibition of PPV derivatives, normalized to PPV; type: cell-based
Procedure: (§1) FIGS. 7A-7D show OCR and cellular toxicity data. […]. Bars represent mean OCR and PDE10 inhibitory activities from at least 5 (OCR) or 3 (PDE) replicates. All experiments were repeated at least twice. […] Values are mean+−SEM.
(§2) Seahorse analysis of the OCR. Oxygen consumption rate (OCR) was measured using Seahorse XF96 Flux Analyzer (Agilent Technologies). The cells were seeded to attach overnight, wells were washed with pre-warmed XF Calibrant (Agilent Technologies) and the replaced with unbuffered Assay Medium (pH 7.4, 5 mM glucose, 1 mM L-glutamine). The plates were incubated at 37° C. in a CO2-free incubator for 2 hours prior to assay. For succinate rescue assay, cells were permeabilized using XF Plasma Membrane Permeabilizer Reagent (XF PMP, Agilent Technologies) according to the manufacturer's instructions. The OCR rate was measured in 1× Mitochondrial Assay Solution (MAS) (70 mM sucrose, 220 mM mannitol, 10 mM KH2PO4, 5 mM MgCl2, 2 mM Hepes, 0.6% (w/v) fatty acid-free BSA and 1 mM EGTA; pH 7.4). After baseline oxygenation was established, 1 μM rotenone or 10 μM PPV was injected at time A, followed by 5 mM succinate at time B. Error bars represent standard deviation. For the washout experiment, EO771 cells were seeded overnight, then treated with 10 μM PPV or 1 μM rotenone 3 hours prior to OCR measurement. Media was replaced 1 and 2 hours before measurement and OCR reported.
Because PPV's effect on mitochondrial function is independent of cAMP levels it was reasoned that there are two activities in PPV, one inhibiting complex 1 and one inhibiting PDE10A that may reside in different parts of the molecule. The structure activity relationship of PPV relative to two assays was assessed: inhibition of cellular OCR by Seahorse, and inhibition of PDE10A by purified enzyme activity in multiwell plate (PDE10A activity assay kit, BPS Bioscience). Because PPV can compete with rotenone as complex 1 inhibitors, it was reasoned that they may be binding the same site and therefore the structures would be similar relative to the mitochondrial binding target. […] Because the top was a planar structure similar to that of rotenone, and they compete with each other for the same binding pocket on complex 1 (FIG. 10) the lower portion of the molecule and how it may resemble rotenone were investigated in more detail. It was established that flexible linkage was preferred for mitochondrial activity and bulky adducts to the lower benzene ring may block it (FIG. 7C). […] These lead compounds were synthesized from commercial precursors and purified on silica gel column. Structures were confirmed by ^1H NMR and found to be >95% pure by HPLC.

[2] = Cellular toxicity of PPV derivatives by trypan blue; type: cell-based; conditions: 10 uM, 72 h
Procedure: as §1
Experimental: Cell lines. All cell lines were purchased from the American Type Culture Collection (ATCC) and grown DMEM (Corning) supplemented with 10% FBS (Seradigm) and 1% Penicillin/Streptomycin (Fisher Bioreagents) at 37° C. in 5% CO2. Cells were treated with inhibitors papaverine hydrochloride (Sigma-Aldrich), rotenone (Sigma-Aldrich), piericidin A (Santa Cruz), capsaicin (Sigma-Aldrich), antimycin A (Sigma-Aldrich) and succinic acid disodium salt (Sigma-Aldrich). Cell viability was assessed by trypan blue exclusion.

[3] = system: oxygen consumption (mitochondrial function); assay: Seahorse XF analysis of oxygen consumption in vitro, cell line not stated; type: cell-based
Procedure: as §2

[4] = system: model tumors grown in mice; assay: Tumor growth delay with radiation, model tumors pooled; type: in vivo; conditions: papaverine 30-60 minutes prior to radiation
Procedure: Tumor Growth kinetics. 2×10^6 EO771 or 5×10^6 A549 cells were injected s.c. into the flanks of 6-week old female immunocompetent C57/B6 (EO771) or immunocompromised nu/nu (A549) mice. Caliper measurements of opposing diameter were used to calculate the tumor volumes. Upon reaching […], the tumors were visualized by cone beam CT and treatment plans calculated using SARRP software. X-rays were delivered with a single beam delivering 5 Gy using the Small Animal Research Radiation Platform (SARRP, Xstrahl). Tumor volumes were measured until the post treatment volume increased 3-fold. Error bars represent standard deviation.
Both models of transplanted tumors that were used for the oxygenation experiments of papaverine's effect on radiation response in vivo were investigated. The murine breast cancer line EO771 that is syngeneic with the BL6 strain of mice was used and transplanted it orthotopically into the mammary fat pad of immune-competent mice. Also used was the human A549 lung adenocarcinoma line that was transplanted into the flank of immune-deficient mice. The breast cancers grew to approximately 150 mm^3 and were then randomized to receive either no treatment, a single dose of either 5 Gy, or papaverine at 2 mg/kg followed 30-40 minutes later by 5 Gy. […]

[5] = system: A549 cells; assay: In vitro radiation survival (colony formation) of A549 cells; type: cell-based, Human
Procedure: FIGS. 4A-4G show tumor growth before and after radiosensitization with PPV. FIG. 4A-4B show in vitro radiation survival assessment of A549 cell line treated with […] PPV in normoxia (FIG. 4A) and anoxia (FIG. 4B). Normoxic cells were irradiated in triplicates on a cell culture dish, anoxic cells were irradiated in high density suspension after sealing with mineral oil 45 minutes before radiation. Values represent averaged colony counts+−standard deviation. FIG. 4C show quantification of tumor growth delay in orthotopic EO771 tumors gown in C57B16 mice receiving either 5 Gy XRT (magenta) or 2 mg/kg PPV 35 minutes prior to 5 Gy XRT (blue) (n=3-4). Values are mean tumor volumes+−SEM. […] Values are mean tumor volumes+−SEM. FIG. 4E-4F show tumor growth delay. When tumors reached 4-fold volume increase, groups receiving no treatment or PPV only (FIG. 4E); and XRT only or PPV followed by XRT (FIG. 4F), tumor weights were compared. Values are mean tumor weights+−SEM (n=8). P values were calculated with two-tailed two-sample t test. FIG. 4G are related to FIG. 4E-4F tumor growth delay.
A549 cells in suspension were treated with 5 μM PPV for one hour prior to radiation and plating in fresh media for colony formation post radiation. (N=2 experiments performed in triplicate). […]

[6] = system: A549 NDUFV1 KO NDI1 cells; type: cell-based, Human; conditions: 10 μM papaverine or 1 μM rotenone
[7] = cited from earlier work

| SMILES | activity in cellular OCR assay ([1]; Seahorse) | Inhibitory activity OCR % of PPV ([1]; Seahorse, OCR inhibition at 10 μM concentration, normalized to PPV) | complex 1 activity compared to PPV ([1]; compared to PPV) | cellular toxicity in vitro [2] | inhibition of oxygen consumption / mitochondrial function in vitro [3] | increase of relative growth delay of a single dose of radiation [4] | increase of relative growth delay of a single dose of radiation ([4]; listed as papaverine) | colony survival after radiation ([5]; 5 μM papaverine for one hour prior to radiation) | surviving fraction of irradiated cells ([5]; 10 μM PPV, normoxia and anoxia) | response of mitochondria (OCR) to drug [6] | expected half-life ([7]; Ritschel et al.) | half-life, cleared from the serum ([7]; in vivo) |
| --- | --- | --- | --- | --- | --- | --- | --- | --- | --- | --- | --- | --- |
| COc1cc2ccnc(Cc3cccc4ccccc34)c2cc1OC [SMV-32] | approaching that of rotenone | 159.3 % of PPV | 160% | Neither of these compounds shows cellular toxicity | – | – | – | – | – | – | – | – |
| COc1ccc(Cc2nccc3cc(OC)c(OC)cc23)cc1OC [PPV, papaverine] | – | – | – | – | effective at inhibiting oxygen consumption | 2-4 fold | 1.9-3.9 fold | did not have any effect on colony survival; also recorded: not an inherent radiosensitizer | did not change the surviving fraction | resistant | 1.5 to 2 h | 1.5 to 2 h |
